Source: PubChem BioAssay AID248 (DTP/NCI, 2004)
Where “and” joins values, the source holds several entries; their conditions need not be identical. Identical values can stand only once. Toxic doses and inconclusive results are not listed. No stated cut-off is given here; in the data, active means T/C of 150% or more; inactive means T/C below 125%.

System: L1210 leukemia ip in BDF1 mice, survival T/C
Experiment: NCI In Vivo Anticancer Drug Screen. Data for tumor model L1210 Leukemia (intraperitoneal) in B6D2F1 (BDF1) mice
Settings: higher = longer survival
In short: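 Transplantable tumor model; survival measured in treated vs vehicle control mice. Value = treated/control.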

[1] = endpoint: mean survival time, dose: 100.0 mg/kg/injection, schedule: Q01DX009 (ip), vehicle: saline with Tween-80
[2] = endpoint: mean survival time, dose: 100.0 mg/kg/injection, schedule: Q04DX002 (ip), vehicle: Klucel (hydroxypropylcellulose) (HPC)
[3] = endpoint: mean survival time, dose: 100.0 mg/kg/injection, schedule: Q04DX002 (ip), vehicle: saline with Tween-80
[4] = endpoint: mean survival time, dose: 200.0 mg/kg/injection, schedule: Q01DX009 (ip), vehicle: saline with Tween-80
[5] = endpoint: mean survival time, dose: 200.0 mg/kg/injection, schedule: Q04DX002 (ip), vehicle: Klucel (hydroxypropylcellulose) (HPC)
[6] = endpoint: mean survival time, dose: 200.0 mg/kg/injection, schedule: Q04DX002 (ip), vehicle: saline with Tween-80
[7] = endpoint: mean survival time, dose: 400.0 mg/kg/injection, schedule: Q04DX002 (ip), vehicle: Klucel (hydroxypropylcellulose) (HPC)
[8] = endpoint: mean survival time, dose: 400.0 mg/kg/injection, schedule: Q04DX002 (ip), vehicle: saline with Tween-80
[9] = endpoint: mean survival time, dose: 400.0 mg/kg/injection, schedule: Q01DX009 (ip), vehicle: saline with Tween-80
[10] = endpoint: mean survival time, dose: 100.0 mg/kg/injection, schedule: Q01DX001 (ip), vehicle: carboxymethylcellulose (CMC)
[11] = endpoint: mean survival time, dose: 200.0 mg/kg/injection, schedule: Q01DX001 (ip), vehicle: carboxymethylcellulose (CMC)
[12] = endpoint: mean survival time, dose: 400.0 mg/kg/injection, schedule: Q01DX001 (ip), vehicle: carboxymethylcellulose (CMC)

Measured: T/C

Cc1cccc(OC(=O)Nc2ccc(Cl)cc2)c1
inactive: endpoint: mean survival time, dose: 100.0 mg/kg/injection, schedule: Q01DX001 (ip), vehicle: saline with Tween-80 93 % of control | [1] 89 % of control | [2] 88 % of control | [3] 100 % of control and 92 % of control | endpoint: mean survival time, dose: 200.0 mg/kg/injection, schedule: Q01DX001 (ip), vehicle: saline with Tween-80 90 % of control | [4] 93 % of control | [5] 98 % of control | [6] 107 % of control and 90 % of control | endpoint: mean survival time, dose: 400.0 mg/kg/injection, schedule: Q01DX001 (ip), vehicle: saline with Tween-80 90 % of control | [7] 109 % of control | [8] 113 % of control and 114 % of control

C/C=C/C(OC(C)=O)OC(C)=O
inactive: endpoint: mean survival time, dose: 50.0 mg/kg/injection, schedule: Q01DX009 (ip), vehicle: saline with Tween-80 101 % of control | [1] 101 % of control | [4] 101 % of control

CC(=O)C(C(c1ccccc1)N1CCOCC1)N1CCOCC1 (stereo not given)
inactive: [2] 100 % of control | endpoint: mean survival time, dose: 100.0 mg/kg/injection, schedule: Q04DX003 (ip), vehicle: saline with Tween-80 97 % of control | [5] 110 % of control | endpoint: mean survival time, dose: 200.0 mg/kg/injection, schedule: Q04DX003 (ip), vehicle: saline with Tween-80 96 % of control | [7] 100 % of control | endpoint: mean survival time, dose: 400.0 mg/kg/injection, schedule: Q04DX003 (ip), vehicle: saline with Tween-80 93 % of control

Nc1ccn(CC(=O)c2cc3ccccc3[nH]2)c(=O)n1
inactive: [3] 101 % of control | [6] 97 % of control | [8] 108 % of control

CC(=O)Oc1ccc2ccnc(/C=N\NC(N)=S)c2c1
inactive: [2] 106 % of control | [5] 98 % of control | [7] 117 % of control

CCCCCCC(=O)O[C@H]1CC[C@H]2[C@@H]3CCC4=CC(=O)CC[C@]4(C)[C@H]3CC[C@]12C
inactive: endpoint: median survival time, dose: 2.0 mg/kg/injection, schedule: Q04DX024 (ip), vehicle: other 94 % of control | endpoint: median survival time, dose: 4.0 mg/kg/injection, schedule: Q01DX016 (ip), vehicle: other 92 % of control | endpoint: median survival time, dose: 4.0 mg/kg/injection, schedule: Q04DX024 (ip), vehicle: other 94 % of control | endpoint: median survival time, dose: 8.0 mg/kg/injection, schedule: Q01DX008 (ip), vehicle: other 95 % of control | endpoint: median survival time, dose: 8.0 mg/kg/injection, schedule: Q01DX009 (ip), vehicle: other 98 % of control | endpoint: median survival time, dose: 8.0 mg/kg/injection, schedule: Q01DX016 (ip), vehicle: other 92 % of control | endpoint: median survival time, dose: 8.0 mg/kg/injection, schedule: Q04DX024 (ip), vehicle: other 91 % of control | endpoint: median survival time, dose: 16.0 mg/kg/injection, schedule: Q01DX008 (ip), vehicle: other 95 % of control | endpoint: median survival time, dose: 16.0 mg/kg/injection, schedule: Q01DX009 (ip), vehicle: other 97 % of control | endpoint: median survival time, dose: 16.0 mg/kg/injection, schedule: Q01DX016 (ip), vehicle: other 90 % of control | endpoint: median survival time, dose: 16.0 mg/kg/injection, schedule: Q04DX003 (ip), vehicle: other 98 % of control | endpoint: median survival time, dose: 16.0 mg/kg/injection, schedule: Q04DX024 (ip), vehicle: other 94 % of control | endpoint: median survival time, dose: 32.0 mg/kg/injection, schedule: Q01DX008 (ip), vehicle: other 112 % of control | endpoint: median survival time, dose: 32.0 mg/kg/injection, schedule: Q01DX009 (ip), vehicle: other 111 % of control | endpoint: median survival time, dose: 32.0 mg/kg/injection, schedule: Q01DX016 (ip), vehicle: other 95 % of control | endpoint: median survival time, dose: 32.0 mg/kg/injection, schedule: Q04DX003 (ip), vehicle: other 100 % of control | endpoint: median survival time, dose: 32.0 mg/kg/injection, schedule: Q04DX024 (ip), vehicle: other 92 % of control | endpoint: median survival time, dose: 32.0 mg/kg/injection, schedule: Q08DX002 (ip), vehicle: other 102 % of control | endpoint: median survival time, dose: 64.0 mg/kg/injection, schedule: Q01DX001 (ip), vehicle: other 98 % of control | endpoint: median survival time, dose: 64.0 mg/kg/injection, schedule: Q01DX008 (ip), vehicle: other 91 % of control | endpoint: median survival time, dose: 64.0 mg/kg/injection, schedule: Q01DX009 (ip), vehicle: other 92 % of control | endpoint: median survival time, dose: 64.0 mg/kg/injection, schedule: Q01DX016 (ip), vehicle: other 89 % of control | endpoint: median survival time, dose: 64.0 mg/kg/injection, schedule: Q04DX003 (ip), vehicle: other 107 % of control | endpoint: median survival time, dose: 64.0 mg/kg/injection, schedule: Q08DX002 (ip), vehicle: other 98 % of control | endpoint: median survival time, dose: 128.0 mg/kg/injection, schedule: Q01DX001 (ip), vehicle: other 104 % of control | endpoint: median survival time, dose: 128.0 mg/kg/injection, schedule: Q01DX009 (ip), vehicle: other 97 % of control | endpoint: median survival time, dose: 128.0 mg/kg/injection, schedule: Q04DX003 (ip), vehicle: other 101 % of control | endpoint: median survival time, dose: 128.0 mg/kg/injection, schedule: Q08DX002 (ip), vehicle: other 101 % of control | endpoint: median survival time, dose: 256.0 mg/kg/injection, schedule: Q01DX001 (ip), vehicle: other 122 % of control | endpoint: median survival time, dose: 256.0 mg/kg/injection, schedule: Q01DX009 (ip), vehicle: other 106 % of control | endpoint: median survival time, dose: 256.0 mg/kg/injection, schedule: Q04DX003 (ip), vehicle: other 102 % of control | endpoint: median survival time, dose: 256.0 mg/kg/injection, schedule: Q08DX002 (ip), vehicle: other 104 % of control | endpoint: median survival time, dose: 512.0 mg/kg/injection, schedule: Q01DX001 (ip), vehicle: other 101 % of control | endpoint: median survival time, dose: 512.0 mg/kg/injection, schedule: Q08DX002 (ip), vehicle: other 106 % of control

Cc1ccccc1-n1c(O)c(N=Nc2ccc(Cl)cc2)c(=O)n(-c2ccccc2)c1=S
inactive: endpoint: mean survival time, dose: 100.0 mg/kg/injection, schedule: Q01DX001 (ip), vehicle: Klucel (hydroxypropylcellulose) (HPC) 87 % of control | endpoint: mean survival time, dose: 200.0 mg/kg/injection, schedule: Q01DX001 (ip), vehicle: Klucel (hydroxypropylcellulose) (HPC) 109 % of control

CCOC(C)C1C2CCCCC21 (stereo not given)
inactive: [1] 101 % of control | [4] 92 % of control

NC(=O)c1ccc(OCc2cnc3nc(N)nc(N)c3n2)cc1
inactive: endpoint: mean survival time, dose: 20.0 mg/kg/injection, schedule: Q01DX009 (ip), vehicle: Klucel (hydroxypropylcellulose) (HPC) 98 % of control | endpoint: mean survival time, dose: 40.0 mg/kg/injection, schedule: Q01DX009 (ip), vehicle: Klucel (hydroxypropylcellulose) (HPC) 95 % of control | endpoint: mean survival time, dose: 80.0 mg/kg/injection, schedule: Q01DX009 (ip), vehicle: Klucel (hydroxypropylcellulose) (HPC) 109 % of control

O=C(O)c1c2ccc(=O)cc-2oc2cc(O)ccc12
inactive: endpoint: mean survival time, dose: 100.0 mg/kg/injection, schedule: Q04DX003 (ip), vehicle: Klucel (hydroxypropylcellulose) (HPC) 92 % of control | endpoint: mean survival time, dose: 200.0 mg/kg/injection, schedule: Q04DX003 (ip), vehicle: Klucel (hydroxypropylcellulose) (HPC) 92 % of control | endpoint: mean survival time, dose: 400.0 mg/kg/injection, schedule: Q04DX003 (ip), vehicle: Klucel (hydroxypropylcellulose) (HPC) 89 % of control

OCCNCc1ccccc1
inactive: [1] 93 % of control | endpoint: mean survival time, dose: 100.0 mg/kg/injection, schedule: Q01DX009 (ip), vehicle: water 95 % of control | endpoint: mean survival time, dose: 100.0 mg/kg/injection, schedule: Q04DX003 (ip), vehicle: water 104 % of control | [4] 102 % of control | endpoint: mean survival time, dose: 200.0 mg/kg/injection, schedule: Q01DX009 (ip), vehicle: water 103 % of control | endpoint: mean survival time, dose: 200.0 mg/kg/injection, schedule: Q04DX003 (ip), vehicle: water 102 % of control | [9] 86 % of control | endpoint: mean survival time, dose: 400.0 mg/kg/injection, schedule: Q01DX009 (ip), vehicle: water 105 % of control | endpoint: mean survival time, dose: 400.0 mg/kg/injection, schedule: Q04DX003 (ip), vehicle: water 102 % of control

COc1ccc(CN2CCCN(Cc3ccc(OC)cc3OC)C2c2cc(OC)ccc2OC)c(OC)c1
inactive: endpoint: mean survival time, dose: 50.0 mg/kg/injection, schedule: Q01DX001 (ip), vehicle: carboxymethylcellulose (CMC) 114 % of control | [10] 102 % of control | [11] 102 % of control | [12] 108 % of control

O=[N+]([O-])c1ccccc1Nc1ccccc1
inactive: [10] 91 % of control | [11] 89 % of control | [12] 91 % of control

Cc1cc(=O)[nH]c(N2CCCCC2)n1
inactive: endpoint: mean survival time, dose: 100.0 mg/kg/injection, schedule: Q01DX001 (ip), vehicle: saline 111 % of control | endpoint: mean survival time, dose: 200.0 mg/kg/injection, schedule: Q01DX001 (ip), vehicle: saline 95 % of control | endpoint: mean survival time, dose: 400.0 mg/kg/injection, schedule: Q01DX001 (ip), vehicle: saline 101 % of control

CCC(=O)n1cc2ccc([N+](=O)[O-])cc2n1
inactive: [2] 112 % of control | [5] 104 % of control | [7] 101 % of control

CCOC(=O)/C=C\COC(=O)CC#N
inactive: [1] 102 % of control | [4] 107 % of control | [9] 98 % of control
